Laboratory results reported in PMC6724072, “Biotransformation of the Mycotoxin Enniatin B1 by CYP P450 3A4 and Potential for Drug-Drug Interactions” (Metabolites, 2019).
Read-outs that look alike come from different tables or passages of the source.

Key:
female mice = test system: female mice; parameters: method as in doi:10.2903/sp.efsa.2018.EN-1406; details: cited from earlier work
[1] = parameters: method as in PMID 24239892, PMID 23598119; details: pigs; cited from earlier work
[2] = parameters: method as in PMID 27632250; details: chicken; cited from earlier work
CYP3A [3] = test system: CYP3A
CYP3A4 [4] = molecular target: T1, CYP3A4 (Homo sapiens, UniProt P08684, S18F); details: ND; 15 min; DON 10 µM and 50 µM; different ENNB1 concentrations
T1 sequence (P08684 with tags, fused parts or gaps S18F limits assumed): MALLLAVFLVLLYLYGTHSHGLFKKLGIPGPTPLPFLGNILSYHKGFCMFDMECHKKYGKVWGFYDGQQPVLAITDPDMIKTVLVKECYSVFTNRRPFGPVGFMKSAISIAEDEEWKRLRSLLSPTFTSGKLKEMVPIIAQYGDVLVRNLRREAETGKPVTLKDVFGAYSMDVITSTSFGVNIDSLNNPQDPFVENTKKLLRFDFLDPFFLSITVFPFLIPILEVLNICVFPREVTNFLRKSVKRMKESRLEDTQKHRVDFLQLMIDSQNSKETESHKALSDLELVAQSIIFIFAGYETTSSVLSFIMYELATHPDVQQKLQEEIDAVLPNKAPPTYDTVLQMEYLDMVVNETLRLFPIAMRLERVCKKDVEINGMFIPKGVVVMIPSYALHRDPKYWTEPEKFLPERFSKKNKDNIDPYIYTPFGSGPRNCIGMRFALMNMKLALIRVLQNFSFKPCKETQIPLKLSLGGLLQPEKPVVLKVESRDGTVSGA
T1 sequence (P02647 79-267 partner limits assumed): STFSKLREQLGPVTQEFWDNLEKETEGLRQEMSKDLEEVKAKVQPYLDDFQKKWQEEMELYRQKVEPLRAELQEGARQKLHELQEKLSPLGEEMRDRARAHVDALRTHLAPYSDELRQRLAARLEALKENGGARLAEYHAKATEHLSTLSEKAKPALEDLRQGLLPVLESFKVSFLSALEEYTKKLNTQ

CYP3A4 [5] = molecular target: T1, CYP3A4; details: for PGS hydroxylation rate (sum of 2β- and 6β-OH-PGS): ND, without DON, mean ± SEM
CYP3A [6] = details: porcine hepatic microsomes; cited from earlier work
CYP3A4/5 = details: HLM, 10 µM DON and […] ENNB1
[7] = ENNB1 substrate depletion assay in human liver microsomes; format: in vitro ADME; details: HLM
Protocol: (§1) The kinetic parameters were derived in HLM assays from the substrate depletion rate constants (ke) that were determined by regression analysis of measured peak areas of the added substrate versus time curves (A(t) = b + a*e^−ket), as described before. Briefly, the assay half-lifes (t1/2, assay = ln2/ke) and assay clearances (CLassay = Vassay*ke) were calculated under consideration of the assay volume (Vassay). Disregarding the potential protein binding of the substrate in the reaction mixture (assuming that the fraction unbound in the assay (fu, assay ~ 1)), the determined assay clearances approximated the intrinsic assay clearances (CLint, assay), which can be described by the Michaelis–Menten equation parameters maximal velocity (vmax, assay) and […] (KM, assay) under the condition that the substrate concentration is well below the KM-value (CLint, assay = vmax, assay/KM, assay). The KM, assay for ENNB1 depletion was determined with different initial concentrations by plotting the determined depletion rate constants versus the respective concentrations. The inflection point of the curve in a lin-log plot represented the KM-value, which occurred when ke is half of the theoretical maximum k0 at infinitesimally low ENNB1 concentrations (ke = k0[ENNB1]→0 *(1 − [ENNB1]/([ENNB1] + KM)).
ENNB1 and its major biotransformation products were analysed while using a Finnigan LTQ linear ion trap mass spectrometer (Thermo Fisher Scientific Inc., Waltham, MA, USA) that was coupled to an ACQUITY UPLC System (Waters). Separation was achieved on a 50 × 2.1-mm i.d. C18 3-μm SunFire column (Waters) with 0.5 μm pre-column filter (Supelco, Bellefonte, PA, USA). The mobile phase was composed of water (A) and MeCN (B) (both containing 2 mM NH4COOH and 2 mM HCOOH). The optimised linear gradient started at 40% B and was held for 1.5 min, before it was raised to […] over 14.5 min. The column was flushed with […] for 2 min, returned to 40% B, and equilibrated for 2.0 min. The total run time was 20 min.
ENNB1 and its putative metabolites were identified by their molecular weights (mass-to-charge (m/z) ratios) and specific retention times. In addition, the MS^n data of the sodiated molecular ions were specified in fragmentation experiments and used for confirmation. The measured peak areas of the ammoniated molecular ions ([M+NH4]^+) were used for the determination of in vitro kinetic parameters and for quantification purposes.

CYP3A4 [8] = molecular target: T1, CYP3A4
in vitro = details: human, microsomes, pH 7.4
[9] = In vitro-to-in vivo extrapolation of kinetic parameters (well-stirred liver model); format: in vitro ADME
Protocol: as §1
The CLint, assay in HLM was upscaled to the assay-independent, intrinsic liver clearance (CLint = CLint, assay*MRI*RLW/Protassay) by considering the amounts of microsomal protein in the assay (Protassay), human relative liver weight (RLW), and human microsomal recovery index (MRI) (Table 1). In vitro-to-in vivo extrapolation (IVIVE) was performed by applying the well-stirred liver model and calculating the systemic blood clearances (CLb) from the CLint, while considering the human hepatic blood flow (Q) (CLb = Q*CLint*fu,b/(Q + CLint*fu,b)). […] The maximal bioavailability (fmax) after oral application was calculated under the assumption of complete absorption from the gastrointestinal tract (fa = 1) as fmax = 1 − CLb/Q.

CYP3A4 [10] = test system: CYP3A4; parameters: method as in PMID 16467307; details: read-out: Ks; cited from earlier work
CYP3A4 [11] = details: cited from earlier work
CYP3A [12] = assay: in vitro; details: human, microsomes, pH 7.4

Compound: CC(C)[C@H]1C(=O)O[C@H](C(C)C)C(=O)N(C)[C@@H](C(C)C)C(=O)O[C@H](C(C)C)C(=O)N(C)[C@@H](C(C)C)C(=O)O[C@H](C(C)C)C(=O)N1C [ENNB, Enniatin B]
- no-observed adverse effect level (NOAEL) (female mice): 0.18 mg/kg body-weight (bw)/day
- bioavailability [1]: > 90%
- bioavailability [2]: < 10%

Compound: CC1=C[C@H]2O[C@@H]3[C@H](O)C[C@](C)([C@@]2(CO)[C@H](O)C1=O)[C@]31CO1 [DON, Deoxynivalenol]
- effect on MDZ metabolite formation profiles (CYP3A [3]; HLM, DON up to 50 µM): Only an indication of a slight change
- effect on MDZ depletion kinetics (CYP3A [3]; HLM, DON up to 50 µM, data not shown): did not have a significant effect
- formation of hydroxylated ENNB1 metabolites vs assays only containing ENNB1 (CYP3A4 [4]): significantly lower
- inhibition of the CYP3A4-dependent metabolism of the typical substrates (CYP3A4 [5]): weak to moderate inhibition
- decrease of 2-OH ATVS lactone (minor product) formation (CYP3A4 [5]; human, pH 7.4): about 20%
- reduction of CYP3A reactivity (CYP3A [6]): about 20%
- effect on formation of ENNB1 metabolites M3/4, M5, M6 (sum) (CYP3A4/5): inhibited the formation of the hydroxylated ENNB1 metabolites M3/4, M5, and M6 in HLM significantly
- effect on depletion of ENNB1 (CYP3A4/5; data not shown): did not observe a significant difference

Compound: CC(=O)[C@H]1CC[C@H]2[C@@H]3CCC4=CC(=O)CC[C@]4(C)[C@H]3CC[C@]12C [PGS, progesterone, reference compound]
- PGS hydroxylation rate (sum of 2β- and 6β-OH-PGS) (CYP3A4 [5]; PGS 15 μM): 5.3 ± 0.6 nmol/(min×nmol CYP3A4)
- PGS hydroxylation rate (sum of 2β- and 6β-OH-PGS) (CYP3A4 [5]; PGS 40 μM): 10.4 ± 1.0 nmol/(min×nmol CYP3A4)

Compound: CC[C@H](C)[C@H]1C(=O)O[C@H](C(C)C)C(=O)N(C)[C@@H](C(C)C)C(=O)O[C@H](C(C)C)C(=O)N(C)[C@@H](C(C)C)C(=O)O[C@H](C(C)C)C(=O)N1C [ENNB1, Enniatin B1]
- 1,4-OH-MDZ level relative to ENNB1-free metabolism (CYP3A [3]; HLM, after 60 min, with ENNB1): reduced to the half
- 1-OH-MDZ level relative to ENNB1-free metabolism (CYP3A [3]; HLM, after 60 min, with ENNB1): returned to normal
- MDZ metabolite formation in presence of ENNB1 (CYP3A [3]; HLM, first 15 min): generally hindered
- CLint, assay ([7]; 1 mL assay, 2 mg microsomal protein): 0.07 mL/min
- unchanged molecule detectable ([7]; incubation of 6 µM for 60 min): less than 4%
- k el at 3 µM ([7]; human, human liver microsomes, pH 7.4, ENNB1 concentration 3 µM, read-out: ke (converted)): 0.00108 s⁻¹
- half-life at 3 µM ([7]; human, human liver microsomes, pH 7.4, substrate concentration 3 µM, read-out: t1/2, assay): 11 min
- Km ([7]; human, liver microsomes, pH 7.4, derived from depletion assays with three ENNB1 concentrations (0.8; 3; 6 µM)): 10.1 µM
- spin shift of CYP3A4 haem iron (binding) (CYP3A4 [8]; ND, ENNB1 21 µM): visible spectral change
- half-life at […] (in vitro): 12 min
- bioavailability [1]: > 90%
- bioavailability [2]: < 10%
- bioavailability ([9]; human liver microsomes, po, assuming complete absorption from the gastrointestinal tract, read-out: fmax (maximum oral bioavailability)): 45%
- CLint ([9]; human, MRI = 40 mg/g, RLW = 22 g/kg BW): 1.72 L/(h×kg×BW)
- CLb ([9]; human, well-stirred model, Q = 1.4 L/(h × kg), fu,b ≈ 1): 0.77 L/(h×kg×BW)

Compound: Cc1ncc2n1-c1ccc(Cl)cc1C(c1ccccc1F)=NC2 [MDZ, midazolam]
- initial MDZ detectable (CYP3A [3]; human, pH 7.4): about 0.2%
- Km (CYP3A4 [11]; read-out: KM,1-OH-MDZ, 1-hydroxylation of MDZ): 3.9 µM
- Km (CYP3A4 [11]; read-out: KM,4-OH-MDZ, 4-hydroxylation of MDZ): 77.5 µM
- half-life (CYP3A [12]): 12 min
